Legend:
Homo sapiens [1] = species on record: Homo sapiens; assay: Evaluated in vitro for its inhibitory activity on LPS-induced TNF-Alpha release in human monocyte.; format: functional
Phosphodiesterase 4 = Phosphodiesterase 4 (Homo sapiens, UniProt P27815+Q08499+Q07343+Q08493); assay: Evaluated in vitro for its inhibitory activity on human monocyte cytosol Phosphodiesterase type 4 (PDE4).; format: protein assay
[2] = target: 3',5'-cyclic-AMP phosphodiesterase 4C (Homo sapiens, UniProt Q08493); assay: Evaluated in vitro for its inhibitory activity on unpurified recombinant Phosphodiesterase 4C
Chain of 3',5'-cyclic-AMP phosphodiesterase 4C (Q08493 whole entry): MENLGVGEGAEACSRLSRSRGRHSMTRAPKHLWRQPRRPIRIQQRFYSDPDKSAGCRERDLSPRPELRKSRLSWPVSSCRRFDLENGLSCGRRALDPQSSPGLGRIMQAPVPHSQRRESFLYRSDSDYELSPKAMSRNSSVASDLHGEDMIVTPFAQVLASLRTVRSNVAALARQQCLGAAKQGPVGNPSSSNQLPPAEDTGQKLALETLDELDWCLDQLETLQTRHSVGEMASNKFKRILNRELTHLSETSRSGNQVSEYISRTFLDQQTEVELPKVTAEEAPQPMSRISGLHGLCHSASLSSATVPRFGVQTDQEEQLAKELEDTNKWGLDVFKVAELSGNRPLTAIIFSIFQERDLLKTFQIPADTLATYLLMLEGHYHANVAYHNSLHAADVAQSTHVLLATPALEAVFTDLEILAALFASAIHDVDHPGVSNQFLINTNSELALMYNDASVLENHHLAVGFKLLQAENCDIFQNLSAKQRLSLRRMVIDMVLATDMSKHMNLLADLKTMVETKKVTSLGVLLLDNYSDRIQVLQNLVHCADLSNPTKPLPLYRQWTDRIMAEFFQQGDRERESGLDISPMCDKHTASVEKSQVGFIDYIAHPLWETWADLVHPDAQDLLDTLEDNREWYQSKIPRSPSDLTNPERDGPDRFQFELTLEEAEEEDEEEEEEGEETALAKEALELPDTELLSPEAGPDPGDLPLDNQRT

Homo sapiens [3] = species on record: Homo sapiens; assay: Evaluated in vitro for its inhibitory activity on LPS-induced TNF-Alpha release in human whole blood.; format: functional, organism-based
[4] = target: 3',5'-cyclic-AMP phosphodiesterase 4D (Homo sapiens, UniProt Q08499); assay: In vitro inhibitory activity on unpurified recombinant Phosphodiesterase 4D
Chain of 3',5'-cyclic-AMP phosphodiesterase 4D (Q08499 whole entry): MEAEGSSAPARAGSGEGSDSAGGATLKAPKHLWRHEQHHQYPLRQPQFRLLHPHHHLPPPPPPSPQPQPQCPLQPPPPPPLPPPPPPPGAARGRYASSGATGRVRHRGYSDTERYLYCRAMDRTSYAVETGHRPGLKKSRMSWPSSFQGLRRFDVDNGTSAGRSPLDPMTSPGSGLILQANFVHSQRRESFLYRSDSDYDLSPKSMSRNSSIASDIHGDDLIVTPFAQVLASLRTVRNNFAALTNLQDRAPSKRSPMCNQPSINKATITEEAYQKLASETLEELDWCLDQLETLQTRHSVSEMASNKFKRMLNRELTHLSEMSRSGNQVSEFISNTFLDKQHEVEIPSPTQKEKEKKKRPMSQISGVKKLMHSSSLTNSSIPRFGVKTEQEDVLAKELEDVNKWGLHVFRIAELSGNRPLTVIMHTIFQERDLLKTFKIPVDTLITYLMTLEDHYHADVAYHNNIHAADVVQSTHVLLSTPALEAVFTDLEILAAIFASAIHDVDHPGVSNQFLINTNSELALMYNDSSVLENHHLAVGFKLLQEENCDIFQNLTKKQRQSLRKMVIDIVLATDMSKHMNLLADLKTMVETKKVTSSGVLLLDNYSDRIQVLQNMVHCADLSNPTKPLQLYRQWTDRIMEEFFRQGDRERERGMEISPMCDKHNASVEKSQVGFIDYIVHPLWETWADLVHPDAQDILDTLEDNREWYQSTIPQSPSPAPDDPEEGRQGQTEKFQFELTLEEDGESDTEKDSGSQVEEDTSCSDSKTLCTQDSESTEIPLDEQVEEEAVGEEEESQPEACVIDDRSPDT

[5] = target: 3',5'-cyclic-AMP phosphodiesterase 4A (Homo sapiens, UniProt P27815); assay: Evaluated in vitro for its inhibitory activity on unpurified recombinant Phosphodiesterase type 4A (PDE4A).
Chain of 3',5'-cyclic-AMP phosphodiesterase 4A (P27815 whole entry): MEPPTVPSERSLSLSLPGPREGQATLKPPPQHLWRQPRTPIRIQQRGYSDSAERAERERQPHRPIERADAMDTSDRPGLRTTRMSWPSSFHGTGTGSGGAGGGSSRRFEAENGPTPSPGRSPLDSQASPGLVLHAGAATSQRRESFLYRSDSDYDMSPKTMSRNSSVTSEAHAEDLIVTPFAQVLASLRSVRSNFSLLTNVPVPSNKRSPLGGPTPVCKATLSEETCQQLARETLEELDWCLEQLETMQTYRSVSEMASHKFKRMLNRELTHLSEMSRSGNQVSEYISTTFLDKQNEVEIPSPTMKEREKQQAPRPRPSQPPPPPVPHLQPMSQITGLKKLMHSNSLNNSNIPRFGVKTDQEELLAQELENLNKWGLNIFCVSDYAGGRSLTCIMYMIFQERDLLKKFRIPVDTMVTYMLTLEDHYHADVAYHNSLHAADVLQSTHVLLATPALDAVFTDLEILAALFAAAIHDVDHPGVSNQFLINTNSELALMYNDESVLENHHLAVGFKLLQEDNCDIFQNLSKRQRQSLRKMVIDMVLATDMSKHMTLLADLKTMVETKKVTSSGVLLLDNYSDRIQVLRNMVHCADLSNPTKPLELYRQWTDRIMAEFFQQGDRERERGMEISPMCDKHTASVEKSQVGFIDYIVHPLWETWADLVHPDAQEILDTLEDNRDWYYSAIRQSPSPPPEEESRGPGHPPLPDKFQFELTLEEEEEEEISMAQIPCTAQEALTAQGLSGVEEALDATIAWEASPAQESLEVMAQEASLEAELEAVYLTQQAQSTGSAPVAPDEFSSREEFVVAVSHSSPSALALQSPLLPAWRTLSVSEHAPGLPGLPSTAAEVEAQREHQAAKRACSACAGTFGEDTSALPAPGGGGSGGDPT

[6] = target: 3',5'-cyclic-AMP phosphodiesterase 4B (Homo sapiens, UniProt Q07343); assay: Inhibition of recombinant human Phosphodiesterase 4B
Chain of 3',5'-cyclic-AMP phosphodiesterase 4B (Q07343 whole entry): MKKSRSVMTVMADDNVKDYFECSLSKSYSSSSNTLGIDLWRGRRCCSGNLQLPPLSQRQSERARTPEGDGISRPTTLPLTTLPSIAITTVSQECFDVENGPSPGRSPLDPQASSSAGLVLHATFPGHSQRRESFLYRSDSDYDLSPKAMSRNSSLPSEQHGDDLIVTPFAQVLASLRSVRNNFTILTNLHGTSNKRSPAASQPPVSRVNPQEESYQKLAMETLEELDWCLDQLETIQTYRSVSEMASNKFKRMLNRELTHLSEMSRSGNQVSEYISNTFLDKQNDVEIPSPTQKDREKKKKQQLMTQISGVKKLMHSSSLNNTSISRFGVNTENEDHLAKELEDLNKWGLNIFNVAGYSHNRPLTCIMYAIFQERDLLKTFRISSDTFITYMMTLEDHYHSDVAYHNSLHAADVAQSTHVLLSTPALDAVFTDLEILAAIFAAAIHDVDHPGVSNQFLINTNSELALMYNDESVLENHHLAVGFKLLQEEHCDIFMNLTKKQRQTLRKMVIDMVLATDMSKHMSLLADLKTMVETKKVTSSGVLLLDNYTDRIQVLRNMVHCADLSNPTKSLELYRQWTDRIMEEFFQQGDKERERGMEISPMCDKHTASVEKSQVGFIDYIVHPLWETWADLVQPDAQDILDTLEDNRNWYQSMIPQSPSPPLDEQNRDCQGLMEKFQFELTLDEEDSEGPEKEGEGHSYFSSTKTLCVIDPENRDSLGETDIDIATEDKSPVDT

COc1ccc(C2=NOC(C(=O)N(C)O)C2)cc1OC1CCCC1 (configuration not stated)
IC50 (Homo sapiens [1]): 10200 nM
IC50 (Phosphodiesterase 4): 3960 nM

COc1ccc(C2=NOC(C(=O)O)C2)cc1OC1CCCC1 (configuration not stated)
IC50 (Homo sapiens [1]): 35100 nM
IC50 (Phosphodiesterase 4): 2540 nM

COc1ccc(C(=O)NC(C)C(=O)NO)cc1OC1CCCC1 (configuration not stated)
IC50 [2]: 126 nM
IC50 (Homo sapiens [3]): 50 nM
IC50 [4]: 20.2 nM
IC50 [5]: 50.7 nM
IC50 [6]: 22.2 nM

COc1ccc(C(=O)NCC(=O)O)cc1OC1CCCC1
IC50 (Homo sapiens [1]): > 50000 nM
IC50 (Phosphodiesterase 4): 1760 nM

COc1ccc(C2=NOC(CC(=O)NO)C2)cc1OC1CCCC1 (configuration not stated)
IC50 (Homo sapiens [1]): 138 nM
IC50 (Phosphodiesterase 4): 221 nM

COc1ccc(C2=NOC(C(N)=O)C2)cc1OC1CCCC1 (configuration not stated)
IC50 (Homo sapiens [1]): 4240 nM
IC50 (Phosphodiesterase 4): 3930 nM

COc1ccc(C(=O)Nc2c(Cl)cncc2Cl)cc1OC1CCCC1
IC50 (Homo sapiens [1]): 2 nM
IC50 (Homo sapiens [3]): 80 nM

COc1ccc(C2=NOC(C)(C(=O)NO)C2)cc1OC1CCCC1 (configuration not stated)
IC50 [2]: 95.2 nM
IC50 (Homo sapiens [3]): 74 nM
IC50 [4]: 10 nM
IC50 [5]: 9.8 nM
IC50 [6]: 10.9 nM

COc1ccc(C(=O)NCC(=O)NO)cc1OC1CCCC1
IC50 (Homo sapiens [1]): 32 nM
IC50 [2]: 15.3 nM
IC50 (Homo sapiens [3]): 66 nM
IC50 [4]: 15.6 nM
IC50 [5]: 27.2 nM
IC50 (Phosphodiesterase 4): 249 nM
IC50 [6]: 17.9 nM

CCCC1(C(=O)NO)CC(c2ccc(OC)c(OC3CCCC3)c2)=NO1 (configuration not stated)
IC50 (Homo sapiens [1]): 1020 nM
IC50 (Phosphodiesterase 4): 567 nM

COc1ccc(-c2cc(C(=O)NO)on2)cc1OC1CCCC1
IC50 (Homo sapiens [1]): 848 nM
IC50 (Phosphodiesterase 4): 1650 nM

COc1ccc(C2CNC(=O)C2)cc1OC1CCCC1 (configuration not stated) [ROLIPRAM]
IC50 (Homo sapiens [1]): 379 nM
IC50 (Homo sapiens [3]): 660 nM

COc1ccc(C2=NOC(C(=O)NO)C2)cc1OC1CCCC1 (configuration not stated)
IC50 [2]: 18 nM
IC50 (Homo sapiens [3]): 30 nM
IC50 [4]: 2.7 nM
IC50 [5]: 2.2 nM
IC50 [6]: 2.1 nM

CCC1(C(=O)NO)CC(c2ccc(OC)c(OC3CCCC3)c2)=NO1 (configuration not stated)
IC50 (Homo sapiens [1]): 230 nM
IC50 (Phosphodiesterase 4): 178 nM
